Reference: patent publication US20250304567A1, “PYRROLIDIONE DERIVATIVES AS INHIBITORS OF NF KAPPA B INDUCING KINASE” (priority 2022, published 2025)

Key:
[1] = system: p-IKKa levels in L363 (NIK translocated multiple myeloma) cells; assay: Effect of compounds on p-IKKa levels in L363 (NIK translocated multiple myeloma) cells (AlphaLISA SureFire Ultra p-IKKa Ser176/180); type: cell-based, human; details: Homo sapiens, L-363, p-IKKa levels in L363 cells; average if tested more than once; read-out: Assay 2 IC50
In short: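 L363 multiple myeloma cells, BAFF-stimulated overnight (250 ng/ml), then 6 h at 37 °C with compound (11-point 1:3 series, 0.3% DMSO) plus BAFF and 10 μM MG132. p-IKKa Ser176/180 read by AlphaLISA SureFire Ultra; IC50 from sigmoidal fit normalised to stimulated and unstimulated controls.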

[2] = molecular target: Recombinant Human NF-kappaB-Inducing Kinase (NIK/MAP3K14) (Homo sapiens, UniProt Q99558); assay: Inhibition of auto-phosphorylation of recombinant human NIK/MAP3K14 activity (AlphaScreen); type: biochemical; details: 5 μM ATP, 1 nM NIK, average if tested more than once
Sequence of Recombinant Human NF-kappaB-Inducing Kinase (NIK/MAP3K14) (Q99558 whole entry): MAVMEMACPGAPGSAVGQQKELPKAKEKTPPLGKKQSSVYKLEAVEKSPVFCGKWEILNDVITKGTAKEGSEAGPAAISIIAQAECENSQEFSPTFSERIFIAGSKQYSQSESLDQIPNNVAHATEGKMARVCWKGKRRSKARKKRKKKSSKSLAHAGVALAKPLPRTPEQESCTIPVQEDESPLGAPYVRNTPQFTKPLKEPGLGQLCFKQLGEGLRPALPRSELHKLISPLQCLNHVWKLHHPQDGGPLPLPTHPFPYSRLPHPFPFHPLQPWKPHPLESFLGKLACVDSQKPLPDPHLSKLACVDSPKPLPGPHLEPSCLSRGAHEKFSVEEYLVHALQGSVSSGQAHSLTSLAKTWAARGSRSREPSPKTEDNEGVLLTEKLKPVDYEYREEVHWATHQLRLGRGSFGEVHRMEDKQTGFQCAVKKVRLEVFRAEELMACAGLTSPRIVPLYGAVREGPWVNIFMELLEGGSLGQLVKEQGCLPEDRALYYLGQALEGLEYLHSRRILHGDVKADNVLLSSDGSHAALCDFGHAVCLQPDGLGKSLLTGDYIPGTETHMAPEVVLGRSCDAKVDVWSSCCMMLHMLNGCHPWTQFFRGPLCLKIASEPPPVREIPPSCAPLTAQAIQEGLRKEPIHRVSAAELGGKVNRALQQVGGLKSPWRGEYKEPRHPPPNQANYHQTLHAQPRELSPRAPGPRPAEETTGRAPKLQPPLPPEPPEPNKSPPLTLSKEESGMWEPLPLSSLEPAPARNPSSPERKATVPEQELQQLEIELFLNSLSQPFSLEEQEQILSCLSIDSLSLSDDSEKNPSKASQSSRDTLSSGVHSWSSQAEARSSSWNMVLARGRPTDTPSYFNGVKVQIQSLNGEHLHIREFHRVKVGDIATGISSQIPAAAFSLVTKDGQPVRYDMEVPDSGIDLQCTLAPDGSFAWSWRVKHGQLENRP
In short: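 GST-tagged NIK (1 nM) auto-phosphorylation with 5 μM ATP, 2 h at 25 °C, pH 7.5 Tris buffer, 0.7% DMSO; stopped with anti-phospho-IKK Ser176/180 antibody and read by AlphaScreen. Signal normalized to full-activity and no-enzyme/no-ATP controls; IC50 from sigmoidal fit of % inhibition vs log concentration.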

Q: How did the IC50 [1] turn out when `Cc1c(CNc2nccc(-c3csc(-c4cccc([C@]5(O)CCN(C)C5=O)c4)n3)n2)cnn1C` [Example 118, (R)-3-(3-(4-(2-(((1,5-dimethyl-1H-pyrazol-4-yl)methyl)amino)pyrimidin-4-yl)thiazol-2-yl)phenyl)-3-hydroxy-1-methylpyrrolidin-2-one] was run?
A: The IC50 was greater than 501 nM.

Q: And the IC50 [2]?
A: Its IC50 is less than 100 nM.

Q: What does the source list for `CC(Nc1nccc(-c2csc(-c3cccc([C@]4(O)CCN(C)C4=O)c3)n2)n1)c1ccnn1C` (stereo partly drawn) [Example 119, (R)-3-hydroxy-1-methyl-3-(3-(4-(2-(((R,S)-1-(1-methyl-1H-pyrazol-5-yl)ethyl)amino)pyrimidin-4-yl)thiazol-2-yl)phenyl)pyrrolidin-2-one]?
A: IC50 [1]: 100 to 500 nM; IC50 [2]: < 100 nM

Q: Which IC50 [1] does the source give for `CN1CC[C@@](O)(c2cccc(-c3nc(-c4ccnc(NC5CCN(c6cnn(C)c6)C5)n4)cs3)c2)C1=O` (stereo partly drawn) [Example 120, (R)-3-hydroxy-1-methyl-3-(3-(4-(2-(((R,S)-1-(1-methyl-1H-pyrazol-4-yl)pyrrolidin-3-yl)amino)pyrimidin-4-yl)thiazol-2-yl)phenyl)pyrrolidin-2-one] here?
A: Its IC50 is greater than 501 nM.

Q: What about the IC50 [2] of the same compound?
A: Its IC50 is 100 to 500 nM.

Q: With `CC(Nc1nccc(-c2csc(-c3cccc([C@]4(O)CCN(C)C4=O)c3)n2)n1)c1cnn(C)c1` (stereo partly drawn) [Example 121, (R)-3-hydroxy-1-methyl-3-(3-(4-(2-(((R,S)-1-(1-methyl-1H-pyrazol-4-yl)ethyl)amino)pyrimidin-4-yl)thiazol-2-yl)phenyl)pyrrolidin-2-one] as the compound, how does the IC50 [1] read?
A: Its IC50 is 100 to 500 nM.

Q: And the IC50 [2]?
A: Its IC50 is less than 100 nM.

Q: With `CN1CC[C@@](O)(c2cccc(-c3nc(-c4ccnc(NC[C@@H]5CCCO5)n4)cs3)c2)C1=O` [Example 122, (R)-3-hydroxy-1-methyl-3-(3-(4-(2-((((S)-tetrahydrofuran-2-yl)methyl)amino)pyrimidin-4-yl)thiazol-2-yl)phenyl)pyrrolidin-2-one] as the compound, how does the IC50 [1] read?
A: Its IC50 is greater than 501 nM.

Q: What about the IC50 [2] of the same compound?
A: The IC50 was less than 100 nM.

Q: With `CN1CC[C@@](O)(c2cccc(-c3nc(-c4ccnc(NC5CCCn6nccc65)n4)cs3)c2)C1=O` (stereo partly drawn) [Example 123, (R)-3-hydroxy-1-methyl-3-(3-(4-(2-(((R,S)-4,5,6,7-tetrahydropyrazolo[1,5-a]pyridin-4-yl)amino)pyrimidin-4-yl)thiazol-2-yl)phenyl)pyrrolidin-2-one] as the compound, how does the IC50 [1] read?
A: Its IC50 is greater than 501 nM.

Q: And the IC50 [2]?
A: Its IC50 is less than 100 nM.

Q: `CN1CC[C@@](O)(c2cccc(-c3nc(-c4ccnc(Nc5cn(C6CCC6)cn5)n4)cs3)c2)C1=O` [Example 124, (R)-3-(3-(4-(2-((1-cyclobutyl-1H-imidazol-4-yl)amino)pyrimidin-4-yl)thiazol-2-yl)phenyl)-3-hydroxy-1-methylpyrrolidin-2-one] was tested. Which IC50 [1] did it give?
A: The IC50 was greater than 501 nM.

Q: And the IC50 [2]?
A: Its IC50 is less than 100 nM.

Q: What does the source list for `CN1CC[C@@](O)(c2cccc(-c3nc(-c4ccnc(Nc5cn(CC6CCC6)cn5)n4)cs3)c2)C1=O` [Example 125, (R)-3-(3-(4-(2-((1-(cyclobutylmethyl)-1H-imidazol-4-yl)amino)pyrimidin-4-yl)thiazol-2-yl)phenyl)-3-hydroxy-1-methylpyrrolidin-2-one]?
A: IC50 [1]: > 501 nM; IC50 [2]: < 100 nM

Q: For `CN1CC[C@@](O)(c2cccc(-c3csc(-c4ccnc(NC5COC5)n4)n3)c2)C1=O` [Example 128, (R)-3-hydroxy-1-methyl-3-(3-(2-(2-(oxetan-3-ylamino)pyrimidin-4-yl)thiazol-4-yl)phenyl)pyrrolidin-2-one], which IC50 [1] is on record?
A: The IC50 was 100 to 500 nM.

Q: And the IC50 [2]?
A: Its IC50 is less than 100 nM.

Q: Which IC50 [1] does the source give for `CN1CC[C@@](O)(c2cccc(-c3nc(-c4ccnc(NC5CCC5)n4)cs3)c2)C1=O` [Example 131, (R)-3-(3-(4-(2-(cyclobutylamino)pyrimidin-4-yl)thiazol-2-yl)phenyl)-3-hydroxy-1-methylpyrrolidin-2-one] here?
A: The IC50 was greater than 501 nM.

Q: What about the IC50 [2] of the same compound?
A: Its IC50 is less than 100 nM.

Q: Which IC50 [1] does the source give for `CN1CC[C@@](O)(c2cccc(-c3ccn(-c4ccnc(NC5COC5)n4)n3)c2)C1=O` [Example 132, (R)-3-hydroxy-1-methyl-3-(3-(1-(2-(oxetan-3-ylamino)pyrimidin-4-yl)-1H-pyrazol-3-yl)phenyl)pyrrolidin-2-one] here?
A: Its IC50 is 100 to 500 nM.

Q: And the IC50 [2]?
A: Its IC50 is less than 100 nM.
